Test results reported in patent US11213494B2 (priority 2016, dated 2022).

How the values were obtained:
[1] = in vivo; parameters: species or system mice; details: Mecp2^tm1.1Jae heterozygous (Het), mouse, ip, 50 mg/kg, brain tissue concentration (corrected for blood contamination)
Method: The brain concentration of LM22A-4 (custom synthesized by Ricerca Biosciences, LLC) was evaluated in Het mice 1 h after a 50 mg/kg intraperitoneal dose using reverse-phase liquid chromatography with triple-quadrupole tandem mass spectrometric (LC-MS/MS) detection. […] Brainstem and forebrain samples were homogenized with a Virsonic 100 ultrasonic homogenizer and prepared for analysis using acetonitrile precipitation by combining one volume of sample with three volumes of acetonitrile. Samples were centrifuged and the resulting supernatant was sampled for analysis using a CTC Leap PAL autosampler (Leap Technologies) and two PerkinElmer series 200 micro pumps. Chromatography was performed at ambient temperature using a 50×2.0 mm inner diameter, 4 μm Synergi Polar-RP analytical column (Phenomenex). The aqueous mobile phase (A) was 4 mM ammonium formate, pH 3.5 and the organic mobile phase (B) was 10:90 (v/v) […] ammonium formate, pH 3.5/acetonitrile. The analyte was eluted with a gradient which changed linearly from 0 to 100% B in 3 min at a flow rate of 300 μl/min. The total run time was 4.5 min and the injection volume was 10 μl. The analyte was detected on a Sciex API 3000 triple-quadrupole mass spectrometer equipped with a TurbolonSpray interface in the positive electrospray ionization mode (Applied Biosystems/MDS). […]

[2] = system: Mecp2 Het mice; format: in vivo; details: 50 mg/kg i.p. twice daily for 4 weeks
Method: (§1) Respiratory patterns were analyzed at 8, 10, and 12 weeks after birth in unrestrained mice using whole-body plethysmography as described previously. Measurements were taken from quiet breathing periods of at least 5 min total duration, and apneas were defined as pauses in breathing greater than two times the average breath duration calculated for each animal. LM22A-4 treatment. Wt and Het littermates were divided into 4 groups: Wt vehicle-treated (100 μl of 0.9% NaCl, i.p., b.i.d.), Wt drug treated (50 mg/kg LM22A-4 in 0.9% NaCl, i.p., b.i.d.), Het vehicle-treated (100 μl of 0.9% NaCl, i.p., b.i.d.), and Het drug-treated (50 mg/kg LM22A-4 in 0.9% NaCl, i.p., b.i.d.). Each mouse was treated from 8 to 13 weeks of age. Whole-body plethysmography was performed during week 12 and animals were subsequently killed and tissues harvested for TrkB Western blots and BDNF ELISA during week 13.
Comparison of respiratory parameters between Wt and Het animals in the initial phenotyping experiments were performed using unpaired Student's t test. Comparisons among Wt vehicle-treated, Wt drug-treated, Het vehicle-treated, and Het drug-treated groups in the LM22A-4 trials, including plethysmography and Western blots were performed using one-way ANOVA with post hoc Least Significant Difference test (LSD) for intergroup comparisons. Results were considered significant if the p-value was <0.05. Data are presented as the mean±SEM.

[3] = system: TrkB; assay: TrkB, AKT and ERK phosphorylation assays (Western blot) in pons and medulla; format: in vivo, mice; details: 50 mg/kg i.p. b.i.d. for 5 weeks
Method: The ratios of (1) phospho-TrkB^Y817/TrkB (full-length), phospho-ERK/ERK and phospho-AKT/AKT, (2) phospho-TrkB^Y817/actin, phospho-ERK/actin and phospho-AKT/actin, (3) TrkB (full-length)/actin, ERK/actin and AKT/actin and (4) TrkB (truncated)/actin were measured by Western blot using the ECL Chemiluminescence System (GE Healthcare). Site-specific rabbit monoclonal antiphospho-TrkB^Y817 antibody was obtained from Epitomics and rabbit polyclonal TrkB antibody was obtained from Millipore. Rabbit polyclonal ERK and AKT, mouse monoclonal phospho-ERK and phospho-AKT antibodies were obtained from Cell Signaling Technology. Tissues were homogenized in a lysis buffer (containing, in mM: 20 Tris, pH 8.0, 137 NaCl, 1% Igepal CA-630, 10% glycerol, 1 PMSF, 10 μg/ml aprotinin, 1 μg/ml leupeptin, 500 μM orthovanadate). Lysates were centrifuged at 14,000×g for 10 min, then the supernatant was collected and protein concentration was determined using the BCA Protein Assay Reagent (Pierce).
as §1

[4] = Body weight and tolerability during LM22A-4 treatment; format: in vivo, mice
Method: as §1

[5] = system: TrkB; assay: Synaptic hyperexcitability in brainstem respiratory and autonomic circuits and apneic breathing in RTT mice; format: in vivo; details: for synaptic hyperexcitability in brainstem respiratory and autonomic circuits: acute
[6] = system: AMPA-receptors; assay: Whole-cell patch-clamp recordings of nTS second-order neurons in brainstem slices; format: cell-based, mice; details: 10 μM in the superfusate
Method: Horizontal brainstem slices were prepared from 3- and 5- to 7-week-old Mecp2 Null and Wt male mice. Animals were deeply anesthetized by inhalation of isoflurane and then decapitated. Brains were removed from the skull and placed in low Ca2+, ice-cold artificial CSF (ACSF) containing the following (in mM): 125 NaCl, 3 KCl, 1.2 NaH2PO4, 1 CaCl2, 1.2 MgSO4, 2 MgCl2, 25 NaHCO3, 10 D-glucose, and 0.4 L-ascorbic acid, equilibrated to pH 7.4 with 95% O2/5% CO2, for 2-5 min. […]
Slices were placed into the recording chamber, held in place with nylon-wired grid and superfused with recording ACSF at 30-32° C. at a flow rate of 4-5 ml/min. […] Evoked, spontaneous and miniature EPSCs (eEPSCs, sPSCs, mEPSCs) were recorded from cells meeting this criterion in the whole-cell voltage-clamp configuration at a holding potential of −60 mV. […] To compare intrinsic neuronal excitability between genotypes, action-potential properties and firing frequency in response to current injection (50 pA increments) were recorded in nComm neurons as well. […]
Spontaneous and evoked postsynaptic currents were analyzed with Clampfit and Microsoft Excel. In the analysis of eEPSCs, 20 sweeps were averaged with Clampfit and the resulting eEPSC amplitudes were measured and compared between genotypes at different stimulation intensities. […]

Molecule: O=C(NCCO)c1cc(C(=O)NCCO)cc(C(=O)NCCO)c1 [LM22A-4, N,N′,N″Tris(2-hydroxyethyl)-1,3,5-benzenetricarboxamide]
- concentration at 1 h ([1]; brainstem): 2.9 nM
- concentration at 1 h ([1]; forebrain): 4.1 nM
- percentage of apneic animals [2]: unaffected
- Te (expiratory time) compared with Wt ([2]; 12-week-old Het mice): not significantly different
- Ttot (total breath duration) compared with Wt ([2]; 12-week-old Het mice): not significantly different
- breathing frequency compared with Wt ([2]; 12-week-old Het mice): not significantly different
- respiratory function, drug- vs vehicle-treated Wt mice ([2]; Wt mice): no significant differences
- deficits in TrkB phosphorylation (p-TrkBY817/TrkB, p-TrkBY817/actin) ([3]; pons and medulla, 13-week-old Het mice): completely reversed
- decreases in p-AKT/AKT and p-AKT/actin ([3]; pons, Het mice): reversed
- effect of drug treatment on level of p-ERK/ERK ([3]; pons, Wt and Het mice): no significant effect
- levels of p-TrkB/TrkB and p-TrkB/actin vs wild-type controls ([3]; pons, drug-treated Het mice): significantly higher
- effect on body weight ([4]; Wt or Het mice, 50 mg/kg i.p. b.i.d. throughout the treatment period): no effect
- tolerability of daily treatment ([4]; heterozygous female Mecp2 mutant mice): well tolerated
- apneic breathing in vivo [5]: eliminate
- synaptic hyperexcitability in brainstem respiratory and autonomic circuits [5]: acutely reverse

Molecule: N#Cc1cc2c(cc1[N+](=O)[O-])=NC(=O)C(=O)N=2 [6-cyano-7-nitroquinoxaline-2,3-dione]
- effect on sPSCs [6]: completely abolished
- reduction of eEPSC amplitudes ([6]; n=10): 92.2±1.4%

B1: BDNF: exogenous brain-derived neurotrophic factor, secreted protein, ligand of TrkB (protein, UniProt P23560 19-247, looked up)
Neurotrophic factor BDNF …: APMKEANIRGQGGLAYPGVRTHGTLESVNGPKAGSRGLTSLADTFEHVIEELLDEDQKVRPNEENNKDADLYTSRVMLSSQVPLEPPLLFLLEEYKNYLDAANMSMRVRRHSDPARRGELSVCDSISEWVTAADKKTAVDMSGGTVTVLEKVPVSKGQLKQYFYETKCNPMGYTKEGCRGIDKRHWNSQCRTTQSYVRALTMDSKKRIGWRFIRIDTSCVCTLTIKRGR
- apneic breathing in vivo [5]: eliminate
- synaptic hyperexcitability in brainstem respiratory and autonomic circuits [5]: acutely reverse
